Results taken from PubChem BioAssay (NCI).
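Abbreviation: GI50, concentration required for 50% inhibition of growth. The concentration for full growth arrest is given as TGI.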

Tests used:
Experiment in all cases: NCI-60 cell line screen, 384-well format
NCI-H522 lung = tested on: NCI-H522 lung
SF-295 CNS = tested on: SF-295 CNS
LOX IMVI melanoma = tested on: LOX IMVI melanoma
HCC-2998 colon = tested on: HCC-2998 colon
NCI-H322M lung = tested on: NCI-H322M lung
MOLT-4 leukemia = tested on: MOLT-4 leukemia
MCF7 breast = tested on: MCF7 breast
NCI-H460 NSCLC = tested on: NCI-H460 NSCLC
786-0 renal = tested on: 786-0 renal
HL-60(TB) leukemia = tested on: HL-60(TB) leukemia
BT-549 breast = tested on: BT-549 breast
HOP-92 NSCLC = tested on: HOP-92 NSCLC
SW-620 colon = tested on: SW-620 colon
ACHN renal = tested on: ACHN renal
HCT-116 colon = tested on: HCT-116 colon
COLO 205 colon = tested on: COLO 205 colon
M14 melanoma = tested on: M14 melanoma
TK-10 renal = tested on: TK-10 renal
SNB-75 CNS = tested on: SNB-75 CNS
RXF 393 renal = tested on: RXF 393 renal
RPMI-8226 leukemia = tested on: RPMI-8226 leukemia
OVCAR-4 ovarian = tested on: OVCAR-4 ovarian
MALME-3M melanoma = tested on: MALME-3M melanoma
NCI-H226 lung = tested on: NCI-H226 lung
EKVX NSCLC = tested on: EKVX NSCLC
UACC-62 melanoma = tested on: UACC-62 melanoma
SF-539 CNS = tested on: SF-539 CNS
HS 578T breast = tested on: HS 578T breast
SNB-19 CNS = tested on: SNB-19 CNS
HCT-15 colon = tested on: HCT-15 colon
A549 NSCLC = tested on: A549 NSCLC
MDA-MB-468 breast = tested on: MDA-MB-468 breast
OVCAR-5 ovarian = tested on: OVCAR-5 ovarian
IGROV1 ovarian = tested on: IGROV1 ovarian
SK-MEL-28 melanoma = tested on: SK-MEL-28 melanoma
KM12 colon = tested on: KM12 colon
NCI-H23 lung = tested on: NCI-H23 lung
SK-MEL-5 melanoma = tested on: SK-MEL-5 melanoma
CAKI-1 renal = tested on: CAKI-1 renal
SK-OV-3 ovarian = tested on: SK-OV-3 ovarian
MDA-MB-231 breast = tested on: MDA-MB-231 breast
UO-31 renal = tested on: UO-31 renal
T-47D breast = tested on: T-47D breast
U251 glioblastoma = tested on: U251 glioblastoma
UACC-257 melanoma = tested on: UACC-257 melanoma
MDA-MB-435 melanoma = tested on: MDA-MB-435 melanoma
OVCAR-8 ovarian = tested on: OVCAR-8 ovarian

Question: `NC(=O)[C@@H](CC1CC1)[C@@H](CCC(F)(F)F)C(=O)N[C@H]1N=C(c2ccccc2)c2cccc(F)c2NC1=O` was tested. Which GI50 (NCI-H522 lung) did it give?
Answer: 15.2 µM

Question: What about the TGI (NCI-H522 lung) of the same compound?
Answer: 30.5 µM

Question: And the GI50 (SF-295 CNS)?
Answer: 17.8 µM

Question: And the TGI (SF-295 CNS)?
Answer: 37.2 µM

Question: What about the GI50 (LOX IMVI melanoma) of the same compound?
Answer: 11.7 µM

Question: What about the TGI (LOX IMVI melanoma) of the same compound?
Answer: 38.4 µM

Question: And the GI50 (HCC-2998 colon)?
Answer: 23.8 µM

Question: What about the TGI (HCC-2998 colon) of the same compound?
Answer: 84.3 µM

Question: And the GI50 (NCI-H322M lung)?
Answer: 12.4 µM

Question: And the TGI (NCI-H322M lung)?
Answer: 40.6 µM

Question: What about the GI50 (MOLT-4 leukemia) of the same compound?
Answer: 7.38 µM

Question: What about the TGI (MOLT-4 leukemia) of the same compound?
Answer: 35 µM

Question: And the GI50 (MCF7 breast)?
Answer: 14.6 µM

Question: What about the TGI (MCF7 breast) of the same compound?
Answer: 29.1 µM

Question: And the GI50 (NCI-H460 NSCLC)?
Answer: 11.6 µM

Question: What about the TGI (NCI-H460 NSCLC) of the same compound?
Answer: > 48.4 µM

Question: And the GI50 (786-0 renal)?
Answer: 20.3 µM

Question: And the TGI (786-0 renal)?
Answer: > 67.6 µM

Question: What about the GI50 (HL-60(TB) leukemia) of the same compound?
Answer: 29.7 µM

Question: What about the TGI (HL-60(TB) leukemia) of the same compound?
Answer: > 100 µM

Question: And the GI50 (BT-549 breast)?
Answer: 17.8 µM

Question: And the TGI (BT-549 breast)?
Answer: 35.2 µM

Question: What about the GI50 (HOP-92 NSCLC) of the same compound?
Answer: 15.5 µM

Question: And the TGI (HOP-92 NSCLC)?
Answer: 29.6 µM

Question: What about the GI50 (SW-620 colon) of the same compound?
Answer: 17.7 µM

Question: And the TGI (SW-620 colon)?
Answer: 35.1 µM

Question: And the GI50 (ACHN renal)?
Answer: 20.8 µM

Question: And the TGI (ACHN renal)?
Answer: > 64.5 µM

Question: What about the GI50 (HCT-116 colon) of the same compound?
Answer: 10.5 µM

Question: What about the TGI (HCT-116 colon) of the same compound?
Answer: 26.1 µM

Question: And the GI50 (COLO 205 colon)?
Answer: > 38.8 µM

Question: What about the TGI (COLO 205 colon) of the same compound?
Answer: > 60.3 µM

Question: And the GI50 (M14 melanoma)?
Answer: 18.5 µM

Question: And the TGI (M14 melanoma)?
Answer: 43.3 µM

Question: What about the GI50 (TK-10 renal) of the same compound?
Answer: 16.5 µM

Question: What about the TGI (TK-10 renal) of the same compound?
Answer: 33 µM

Question: What about the GI50 (SNB-75 CNS) of the same compound?
Answer: 10.7 µM

Question: What about the TGI (SNB-75 CNS) of the same compound?
Answer: 25.4 µM

Question: And the GI50 (RXF 393 renal)?
Answer: 7.3 µM

Question: What about the TGI (RXF 393 renal) of the same compound?
Answer: 22.6 µM

Question: And the GI50 (RPMI-8226 leukemia)?
Answer: 16.2 µM

Question: What about the TGI (RPMI-8226 leukemia) of the same compound?
Answer: 36.2 µM

Question: And the GI50 (OVCAR-4 ovarian)?
Answer: 13.3 µM

Question: And the TGI (OVCAR-4 ovarian)?
Answer: 28.1 µM

Question: What about the GI50 (MALME-3M melanoma) of the same compound?
Answer: 14.8 µM

Question: And the TGI (MALME-3M melanoma)?
Answer: 28.2 µM

Question: What about the GI50 (NCI-H226 lung) of the same compound?
Answer: 16.5 µM

Question: What about the TGI (NCI-H226 lung) of the same compound?
Answer: 30.5 µM

Question: What about the GI50 (EKVX NSCLC) of the same compound?
Answer: 7.61 µM

Question: What about the TGI (EKVX NSCLC) of the same compound?
Answer: 32 µM

Question: What about the GI50 (UACC-62 melanoma) of the same compound?
Answer: 14.7 µM

Question: What about the TGI (UACC-62 melanoma) of the same compound?
Answer: 28.7 µM

Question: And the GI50 (SF-539 CNS)?
Answer: 15.4 µM

Question: What about the TGI (SF-539 CNS) of the same compound?
Answer: 29 µM

Question: And the GI50 (HS 578T breast)?
Answer: 11.3 µM

Question: And the TGI (HS 578T breast)?
Answer: 25.5 µM

Question: And the GI50 (SNB-19 CNS)?
Answer: 14.7 µM

Question: What about the TGI (SNB-19 CNS) of the same compound?
Answer: 28.9 µM

Question: And the GI50 (HCT-15 colon)?
Answer: > 65.9 µM

Question: What about the TGI (HCT-15 colon) of the same compound?
Answer: > 100 µM

Question: And the GI50 (A549 NSCLC)?
Answer: 15.7 µM

Question: And the TGI (A549 NSCLC)?
Answer: 49.4 µM

Question: What about the TGI (MDA-MB-468 breast) of the same compound?
Answer: 2.52 µM

Question: And the GI50 (OVCAR-5 ovarian)?
Answer: 18.5 µM

Question: And the TGI (OVCAR-5 ovarian)?
Answer: 47.1 µM

Question: What about the GI50 (IGROV1 ovarian) of the same compound?
Answer: 16.1 µM

Question: And the TGI (IGROV1 ovarian)?
Answer: 40.4 µM

Question: What about the GI50 (SK-MEL-28 melanoma) of the same compound?
Answer: 17.8 µM

Question: And the TGI (SK-MEL-28 melanoma)?
Answer: 33.2 µM

Question: What about the GI50 (KM12 colon) of the same compound?
Answer: > 51.9 µM

Question: And the TGI (KM12 colon)?
Answer: > 100 µM

Question: And the GI50 (NCI-H23 lung)?
Answer: 9.77 µM

Question: And the TGI (NCI-H23 lung)?
Answer: 30 µM

Question: And the GI50 (SK-MEL-5 melanoma)?
Answer: 9.41 µM

Question: And the TGI (SK-MEL-5 melanoma)?
Answer: 24.1 µM

Question: What about the GI50 (CAKI-1 renal) of the same compound?
Answer: 15 µM

Question: What about the TGI (CAKI-1 renal) of the same compound?
Answer: 36.8 µM

Question: And the GI50 (SK-OV-3 ovarian)?
Answer: 14.9 µM

Question: What about the TGI (SK-OV-3 ovarian) of the same compound?
Answer: 28.5 µM

Question: And the GI50 (MDA-MB-231 breast)?
Answer: 14.4 µM

Question: And the TGI (MDA-MB-231 breast)?
Answer: 28 µM

Question: And the GI50 (UO-31 renal)?
Answer: 17.6 µM

Question: What about the TGI (UO-31 renal) of the same compound?
Answer: 69.1 µM

Question: And the GI50 (T-47D breast)?
Answer: 1.94 µM

Question: And the TGI (T-47D breast)?
Answer: 17.7 µM

Question: And the GI50 (U251 glioblastoma)?
Answer: 17.7 µM

Question: And the TGI (U251 glioblastoma)?
Answer: 34 µM

Question: And the GI50 (UACC-257 melanoma)?
Answer: 5.76 µM

Question: What about the TGI (UACC-257 melanoma) of the same compound?
Answer: 24.6 µM

Question: What about the GI50 (MDA-MB-435 melanoma) of the same compound?
Answer: 19.2 µM

Question: What about the TGI (MDA-MB-435 melanoma) of the same compound?
Answer: 43.7 µM

Question: What about the GI50 (OVCAR-8 ovarian) of the same compound?
Answer: 16 µM

Question: And the TGI (OVCAR-8 ovarian)?
Answer: 33.5 µM
